Where a name gives a salt, the structure may show the parent alone. Some results are limits rather than exact numbers.

Test [1] concerns the target T1, human JAK1 (a.a. 837-1142) (Homo sapiens, UniProt P23458).
T1 construct: human JAK1 (a.a. 837-1142); His tag (N); made in house; host or cells: insect cells (baculovirus)
Description: In vitro JAK kinase assay (HTRF, phosphorylation of a biotinylated peptide), JAK1. It counts as biochemical. An outline of the steps:
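His-tagged catalytic domains (JAK1 a.a. 837-1142, JAK2 a.a. 828-1132) from insect cells phosphorylate 500 nM biotinylated peptide in 50 mM Tris pH 7.8, 100 mM NaCl, 5 mM DTT; ATP at Km (90 μM JAK1, 30 μM JAK2) or 1 mM, as indicated. 1 h at RT; EDTA stop, HTRF readout; IC50s.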

For test [2], the target named is T2, Jak2 (a.a. 828-1132) (Homo sapiens, UniProt O60674).
T2 construct: Jak2 (a.a. 828-1132); His tag (N); made in house; host or cells: insect cells (baculovirus)
T2 sequence (O60674 828-1132): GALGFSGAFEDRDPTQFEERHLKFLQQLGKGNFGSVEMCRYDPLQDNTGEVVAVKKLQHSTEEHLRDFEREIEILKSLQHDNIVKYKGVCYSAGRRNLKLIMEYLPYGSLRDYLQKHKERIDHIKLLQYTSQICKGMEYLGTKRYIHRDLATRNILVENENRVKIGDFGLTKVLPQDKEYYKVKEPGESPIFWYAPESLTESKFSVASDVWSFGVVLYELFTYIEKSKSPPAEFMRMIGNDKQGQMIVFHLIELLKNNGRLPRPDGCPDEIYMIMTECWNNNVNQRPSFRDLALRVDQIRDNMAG
Description: In vitro JAK kinase assay (HTRF, phosphorylation of a biotinylated peptide), JAK2, reported as JAK2/JAK1 ratio. It counts as biochemical.

Where [3] appears, read: Assay Conditions Km (ATP 90 μM for Jak1).
The mark [4] stands for this setting: Assay Conditions Km (ATP 90 μM for Jak1, 30 μM for Jak2).

T1 sequence (P23458 849-1154): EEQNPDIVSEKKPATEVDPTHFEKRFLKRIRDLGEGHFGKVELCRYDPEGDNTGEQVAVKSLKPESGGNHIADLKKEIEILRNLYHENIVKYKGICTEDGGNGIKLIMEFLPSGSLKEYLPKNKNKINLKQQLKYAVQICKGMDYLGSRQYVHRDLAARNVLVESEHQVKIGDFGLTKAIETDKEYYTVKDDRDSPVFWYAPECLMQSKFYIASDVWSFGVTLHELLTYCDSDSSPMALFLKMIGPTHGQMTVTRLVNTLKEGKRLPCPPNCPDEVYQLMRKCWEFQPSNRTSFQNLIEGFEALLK

In test [1] (setting [3]), `N#CCC(C1CCN(c2cccc(Cl)n2)C1)n1cc(-c2ncnc3[nH]ccc23)cn1` (single isomer, unassigned) [2, Step 2a] had an IC50 of less than 50 nM. Moreover, the “JAK2/JAK1 IC50 ratio” value in test [2] (setting [4]) is 7.3.
With `CS(=O)(=O)c1ccnc(N2CC[C@H]([C@H](CC#N)n3cc(-c4ncnc5[nH]ccc45)cn3)C2)c1C#N` [Example 128, 2-((3S)-3-{(1S)-2-cyano-1-[4-(7H-pyrrolo[2,3-d]pyrimidin-4-yl)-1H-pyrazol-1-yl]ethyl}pyrrolidin-1-yl)-4-(methylsulfonyl)nicotinonitrile], in test [1] (Assay Conditions 1 mM ATP), the IC50 was less than 50 nM. Further, in test [2] (Assay Conditions 1 mM ATP), the “JAK2/JAK1 IC50 ratio” value turned out to be 4.7.
Compound `CCCS(=O)(=O)c1ccc(F)c(N2CC[C@H]([C@H](CC#N)n3cc(-c4ncnc5[nH]ccc45)cn3)C2)n1` [Example 99, trifluoroacetate] returned an IC50 in test [1] (Assay Conditions 1 mM ATP) of less than 50 nM. Further, in test [2] (Assay Conditions 1 mM ATP), the “JAK2/JAK1 IC50 ratio” value worked out at 7.6.
Turning to `CN(C)c1ccnc(N2CCC(C(CC#N)n3cc(-c4ncnc5[nH]ccc45)cn3)C2)n1` (stereo not drawn) [Example 6, 3-{1-[4-(dimethylamino)pyrimidin-2-yl]pyrrolidin-3-yl}-3-[4-(7H-pyrrolo[2,3-d]pyrimidin-4-yl)-1H-pyrazol-1-yl]propanenitrile], the IC50 in test [1] (setting [3]) was less than 50 nM. Moreover, in test [2] (setting [4]), the “JAK2/JAK1 IC50 ratio” value is more than 5.
For the compound `N#CCC(n1cc(-c2ncnc3[nH]ccc23)cn1)C1(F)CCN(c2nc3cccnc3o2)C1` (single isomer, unassigned) [31, Step 4a, enantiomer 2], the IC50 in test [1] (Assay Conditions 1 mM ATP) is 50 to 100 nM. Moreover, in test [2] (Assay Conditions 1 mM ATP), the “JAK2/JAK1 IC50 ratio” value worked out at 5.1.
In the case of `N#CC[C@@H]([C@H]1CCN(c2c(F)nc(F)c(F)c2C#N)C1)n1cc(-c2ncnc3[nH]ccc23)cn1` [Example 65, 3-((3S)-3-{(1S)-2-cyano-1-[4-(7H-pyrrolo[2,3-d]pyrimidin-4-yl)-1H-pyrazol-1-yl]ethyl}pyrrolidin-1-yl)-2,5,6-trifluoroisonicotinonitrile trifluoroacetate salt], in test [1] (Assay Conditions 1 mM ATP), the IC50 was less than 50 nM. Further, the “JAK2/JAK1 IC50 ratio” value in test [2] (Assay Conditions 1 mM ATP) came to 9.4.
On to `FCC([C@@H]1CCN(c2nc3cccnc3o2)C1)n1cc(-c2ncnc3[nH]ccc23)cn1` (stereo partly drawn) [71 (3R- enantiomer), 2-((3R)-3-{2-fluoro-1-[4-(7H-pyrrolo[2,3-d]pyrimidin-4-yl)-1H-pyrazol-1-yl]ethyl}pyrrolidin-1-yl) [1,3]oxazolo[5,4-b]pyridine phosphoric acid salt], for which, in test [1] (Assay Conditions 1 mM ATP), the IC50 is less than 50 nM. For the same compound, in test [2] (Assay Conditions 1 mM ATP), the “JAK2/JAK1 IC50 ratio” value worked out at 5.9.
On the same counts, the results for `CN(C)C(=O)c1cc(N2CCC(C(CC#N)n3cc(-c4ncnc5[nH]ccc45)cn3)C2)ccn1` (single isomer, unassigned) [Example 153, 4-(3-{2-cyano-1-[4-(7H-pyrrolo[2,3-d]pyrimidin-4-yl)-1H-pyrazol-1-yl]ethyl}pyrrolidin-1-yl)-N,N-dimethylpyridine-2-carboxamide] are less than 50 nM and more than 11.1.
With `CS(=O)(=O)c1nccc(N2CCC(C(CC#N)n3cc(-c4ncnc5[nH]ccc45)cn3)C2)n1` (single isomer, unassigned) [Example 25, 3-{1-[2-(methylsulfonyl)pyrimidin-4-yl]pyrrolidin-3-yl}-3-[4-(7H-pyrrolo[2,3-d]pyrimidin-4-yl)-1H-pyrazol-1-yl]propanenitrile], the IC50 in test [1] (Assay Conditions 1 mM ATP) was less than 50 nM. Also, the “JAK2/JAK1 IC50 ratio” value in test [2] (Assay Conditions 1 mM ATP) came out at 34.
Consider `N#CC[C@@H]([C@H]1CCN(c2ccnnc2C#N)C1)n1cc(-c2ncnc3[nH]ccc23)cn1` [Example 106, 4-((S)-3-((S)-1-(4-(7H-pyrrolo[2,3-d]pyrimidin-4-yl)-1H-pyrazol-1-yl)-2-cyanoethyl)pyrrolidin-1-yl) pyridazine-3-carbonitrile trifluoroacetate salt], for which the IC50 in test [1] (Assay Conditions 1 mM ATP) was less than 50 nM. Also, the “JAK2/JAK1 IC50 ratio” value in test [2] (Assay Conditions 1 mM ATP) came to 12.6.
The corresponding values for `N#CCC(n1cc(-c2ncnc3[nH]ccc23)cn1)C1(F)CCN(c2nc3cccnc3o2)C1` (single isomer, unassigned) [31, Step 4b, enantiomer 1] are 100 to 500 nM and more than 2.5.
On the same counts, the results for `FCC([C@H]1CCN(c2nc3cccnc3o2)C1)n1cc(-c2ncnc3[nH]ccc23)cn1` (stereo partly drawn) [70 (3S- enantiomer), 2-((3S)-3-{2-fluoro-1-[4-(7H-pyrrolo[2,3-d]pyrimidin-4-yl)-1H-pyrazol-1-yl]ethyl}pyrrolidin-1-yl)[1,3]oxazolo[5,4-b]pyridine phosphoric acid salt] are less than 50 nM and 15.
On to `CS(=O)(=O)c1cc(N2CCC(C(CC#N)n3cc(-c4ncnc5[nH]ccc45)cn3)C2)ccn1` (single isomer, unassigned) [Example 27, 3-{1-[2-(methylsulfonyl)pyridin-4-yl]pyrrolidin-3-yl}-3-[4-(7H-pyrrolo[2,3-d]pyrimidin-4-yl)-1H-pyrazol-1-yl]propanenitrile], for which the IC50 in test [1] (Assay Conditions 1 mM ATP) is less than 50 nM. For the same compound, the “JAK2/JAK1 IC50 ratio” value in test [2] (Assay Conditions 1 mM ATP) is reported as 14.
Take `Cc1ccnc(N2CC[C@H]([C@H](CC#N)n3cc(-c4ncnc5[nH]ccc45)cn3)C2)c1C#N` [Example 100, 2-((S)-3-((S)-1-(4-(7H-pyrrolo[2,3-d]pyrimidin-4-yl)-1H-pyrazol-1-yl)-2-cyanoethyl)pyrrolidin-1-yl)-4-methylnicotinonitrile trifluoroacetate]: in test [1] (Assay Conditions 1 mM ATP), the IC50 was less than 50 nM. Also, the “JAK2/JAK1 IC50 ratio” value in test [2] (Assay Conditions 1 mM ATP) was more than 7.4.
As for `CS(=O)(=O)c1nc(N2CC[C@H]([C@H](CC#N)n3cc(-c4ncnc5[nH]ccc45)cn3)C2)c(F)cc1F` [Example 130, (3S)-3-{(3S)-1-[3,5-difluoro-6-(methylsulfonyl)pyridin-2-yl]pyrrolidin-3-yl}-3-[4-(7H-pyrrolo[2,3-d]pyrimidin-4-yl)-1H-pyrazol-1-yl]propanenitrile trifluoroacetate], in test [1] (Assay Conditions 1 mM ATP), the IC50 is less than 50 nM. Further, the “JAK2/JAK1 IC50 ratio” value in test [2] (Assay Conditions 1 mM ATP) is recorded as 14.8.
`N#CC[C@@H]([C@H]1CCN(c2c(F)cc(F)c(F)c2C#N)C1)n1cc(-c2ncnc3[nH]ccc23)cn1` [Example 61, 2-((3S)-3-{(1S)-2-cyano-1-[4-(7H-pyrrolo[2,3-d]pyrimidin-4-yl)-1H-pyrazol-1-yl]ethyl}pyrrolidin-1-yl)-3,5,6-trifluorobenzonitrile trifluoroacetate salt]: in test [1] (Assay Conditions 1 mM ATP), the concentration for half-maximal inhibition (IC50) was less than 50 nM. The “JAK2/JAK1 IC50 ratio” value in test [2] (Assay Conditions 1 mM ATP) is recorded as 6.4.
`CC(O)c1cnc(N2CC[C@H]([C@H](CC#N)n3cc(-c4ncnc5[nH]ccc45)cn3)C2)c(C#N)n1` (stereo partly drawn) [Example 146, 3-((3S)-3-{(1S)-2-cyano-1-[4-(7H-pyrrolo[2,3-d]pyrimidin-4-yl)-1H-pyrazol-1-yl]ethyl}pyrrolidin-1-yl)-6-(1-hydroxyethyl)pyrazine-2-carbonitrile trifluoroacetate] displayed an IC50 in test [1] (Assay Conditions 1 mM ATP) of less than 50 nM. In test [2] (Assay Conditions 1 mM ATP), the “JAK2/JAK1 IC50 ratio” value is recorded as more than 4.8.
For the compound `N#CC[C@@H]([C@H]1CCN(c2scc(Br)c2C#N)C1)n1cc(-c2ncnc3[nH]ccc23)cn1` [Example 77, 4-bromo-2-((3S)-3-{(1S)-2-cyano-1-[4-(7H-pyrrolo[2,3-d]pyrimidin-4-yl)-1H-pyrazol-1-yl]ethyl}pyrrolidin-1-yl)thiophene-3-carbonitrile], the IC50 in test [1] (Assay Conditions 1 mM ATP) was less than 50 nM. For the same compound, the “JAK2/JAK1 IC50 ratio” value in test [2] (Assay Conditions 1 mM ATP) is 39.1.

These data come from patent US8716303B2, “N-(hetero)aryl-pyrrolidine derivatives of pyrazol-4-yl-pyrrolo[2,3-d]pyrimidines and pyrrol-3-yl-pyrrolo[2,3-d]pyrimidines as janus kinase inhibitors” (Incyte Corporation, priority 2009, dated 2014).
